In EP2899531B1, “Method for detecting a chiral analytes” (Jacobs University Bremen gGmbH, priority 2013, dated 2015):
Peptide text beside a SMILES is read from it.

Columns and labels:
CB8-MDAP = test: Binding constants of chiral analytes with CB8-MDAP receptor complex, UV/Vis titration; conditions: CB8-MDAP (100 µM), H2O, 22 °C; from UV/Vis titrations, estimated error ≤ 10%
Text: (§1) Bindungskonstanten zwischen CB8-Farbstoff-Komplexen und den in Tabelle 1 aufgeführten Analyten wurden mittels UV/Vis-Titration in H2O, sofern nicht anders angegeben, durchgeführt. Zu einer Lösung aus dem CB8-Farbstoff-Rezeptor wurde schrittweise eine Lösung des Analyten gegeben, und die UV/Vis-Spektren wurden aufgezeichnet. Die normalisierte Absorption bei 419 nm (CB8-MDAP) oder bei 443 nm (CB8-MDPP) wurde mit einer Gleichung für eine 1:1-Bindung mittels der Kleinstquadratmethode angepasst ([50]).

CB8-MDPP [1] = test: Binding constants of chiral analytes with CB8-MDPP receptor complex, UV/Vis titration; conditions: CB8-MDPP (20 µM), H2O, 22 °C; from UV/Vis titrations, estimated error ≤ 10%
Text: as §1

CB8-MDPP [2] = test: Binding constants of chiral analytes with CB8-MDPP receptor complex, ICD titration; conditions: CB8-MDPP (20 µM), H2O, 22 °C; obtained by ICD titration
Text: Die Bindungsaffinitäten der strukturell verschiedenartigen Analyten lagen im Bereich von 10^3 bis 10^6 M^-1, wodurch eine hochempfindliche Detektion ermöglicht wird. Die durch ICD-Titrationen ermittelten Bindungskonstanten bestätigten die durch UV/Vis-Messungen ermittelten. In allen Fällen fungiert CB8 als unverzichtbare Grundlage für die ICD-Effekte. […] Wie erwartet, ergab ein anderer Reporter-Farbstoff, MDAP oder MVE, jeweils ein anderes ICD-Spektrum, jedoch bei gleichermaßen niedriger Analytenkonzentration (40-100 µM, im Vergleich zu 20 µM, s. Tabelle 4, Fig. 3).

Question: Which results are given for `N[C@@H](CC(=O)O)C(=O)N[C@@H](Cc1ccccc1)C(=O)O` [AspPhe] (H-Asp-Phe-OH)?
Answer: Ka (CB8-MDAP): 0.8 10^3 M^-1; Ka (CB8-MDPP [1]): 7 10^3 M^-1

Question: Which Ka (CB8-MDAP) does the source give for `N[C@@H](CCC(=O)O)C(=O)N[C@@H](Cc1c[nH]c2ccccc12)C(=O)O` [GluTrp] (H-Glu-Trp-OH) here?
Answer: 25 10^3 M^-1

Question: And the Ka (CB8-MDPP [1])?
Answer: 210 10^3 M^-1

Question: Which Ka (CB8-MDPP [1]) does the source give for `NCC(=O)N[C@@H](Cc1c[nH]c2ccccc12)C(=O)NCC(=O)O` [GlyTrpGly] (H-Gly-Trp-Gly-OH) here?
Answer: 5000 10^3 M^-1

Question: Which Ka (CB8-MDAP) does the source give for `N[C@@H](Cc1ccccc1)C(=O)NCC(=O)O` [PheGly] (H-Phe-Gly-OH) here?
Answer: 25 10^3 M^-1

Question: And the Ka (CB8-MDPP [1])?
Answer: 1900 10^3 M^-1

Question: `CC(C)[C@H](NC(=O)[C@@H](N)Cc1ccccc1)C(=O)O` [PheVal] (H-Phe-Val-OH) was tested. Which Ka (CB8-MDAP) did it give?
Answer: 11 10^3 M^-1

Question: And the Ka (CB8-MDPP [2])?
Answer: 1400^d 10^3 M^-1

Question: What about the Ka (CB8-MDPP [1]) of the same compound?
Answer: 1500 10^3 M^-1

Question: For `N[C@@H](Cc1c[nH]c2ccccc12)C(=O)NCC(=O)NCC(=O)O` [TrpGlyGly] (H-Trp-Gly-Gly-OH), which Ka (CB8-MDPP [1]) is on record?
Answer: 200 10^3 M^-1

Question: Which results are given for `N[C@@H](Cc1c[nH]c2ccccc12)C(=O)N1CCC[C@H]1C(=O)O` [TrpPro] (H-Trp-Pro-OH)?
Answer: Ka (CB8-MDAP): 50 10^3 M^-1; Ka (CB8-MDPP [1]): 430 10^3 M^-1
